Measurements: ChEMBL document CHEMBL1201862, “PubChem BioAssay data set” (2004)
Active and inactive are the calls of the source.

Tests used:
Protein skinhead-1 = biological target: T1, Protein skinhead-1 (Caenorhabditis elegans, UniProt P34707); type: functional
T1 sequence (P34707 whole entry): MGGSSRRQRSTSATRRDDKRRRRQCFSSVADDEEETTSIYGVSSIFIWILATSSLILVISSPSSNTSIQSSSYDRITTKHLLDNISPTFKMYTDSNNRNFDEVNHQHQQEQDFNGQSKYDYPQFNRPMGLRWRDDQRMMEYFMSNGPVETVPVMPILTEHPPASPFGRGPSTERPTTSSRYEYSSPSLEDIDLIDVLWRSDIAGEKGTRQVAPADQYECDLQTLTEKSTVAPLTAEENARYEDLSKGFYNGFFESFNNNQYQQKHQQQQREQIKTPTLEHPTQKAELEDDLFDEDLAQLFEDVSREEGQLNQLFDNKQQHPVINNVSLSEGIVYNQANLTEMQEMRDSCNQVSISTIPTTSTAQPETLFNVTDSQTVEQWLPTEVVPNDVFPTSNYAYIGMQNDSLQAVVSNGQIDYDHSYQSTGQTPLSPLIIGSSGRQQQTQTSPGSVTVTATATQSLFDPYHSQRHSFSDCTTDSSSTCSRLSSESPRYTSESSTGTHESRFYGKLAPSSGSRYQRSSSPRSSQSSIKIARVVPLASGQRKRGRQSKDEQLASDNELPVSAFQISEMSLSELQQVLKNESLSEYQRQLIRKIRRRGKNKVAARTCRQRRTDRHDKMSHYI

[1] = blockers of HIV-1 envelope-mediated cell-cell fusion – cherry-pick, dose response (AID 652057); type: functional, cell-based
[2] = off-target signal loss in HeLa-CEM21 co-culture – HeLa F-luc CTL cells, cherry-picked, counter-screen for HIV-1 Env fusion inhibitor project, dose response (AID 652040); type: functional, cell-based;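 note: potency for signal decrease marking cytotoxic or nonspecific inhibition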
[3] = HIV-1 AD8 envelope cell-cell fusion blockers – cherry-pick, dose response (AID 652062); type: functional, cell-based;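 note: luciferase signal from cell-cell fusion driven by HIV-1 clade B AD8 Env; potency is for inhibitors of fusion seen as a drop in luminescence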
[4] = blockers of HIV-1 ZM109 envelope-driven cell-cell fusion – HeLa effector, CEM target cells, luciferase, cherry-pick, dose response (AID 652058); type: functional, cell-based;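 note: luciferase signal from HIV-1 Env mediated cell-cell fusion of effector and target cells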
[5] = biological target: T2, Short transient receptor potential channel 4 (Mus musculus, UniProt Q9QUQ5); test: calcium entry via TRPC4 opening agents – cell-based, HEK293 TRPC4/mu-opioid, Fluo-4 calcium, dose response (AID 434937); type: functional
T2 sequence (Q9QUQ5 whole entry): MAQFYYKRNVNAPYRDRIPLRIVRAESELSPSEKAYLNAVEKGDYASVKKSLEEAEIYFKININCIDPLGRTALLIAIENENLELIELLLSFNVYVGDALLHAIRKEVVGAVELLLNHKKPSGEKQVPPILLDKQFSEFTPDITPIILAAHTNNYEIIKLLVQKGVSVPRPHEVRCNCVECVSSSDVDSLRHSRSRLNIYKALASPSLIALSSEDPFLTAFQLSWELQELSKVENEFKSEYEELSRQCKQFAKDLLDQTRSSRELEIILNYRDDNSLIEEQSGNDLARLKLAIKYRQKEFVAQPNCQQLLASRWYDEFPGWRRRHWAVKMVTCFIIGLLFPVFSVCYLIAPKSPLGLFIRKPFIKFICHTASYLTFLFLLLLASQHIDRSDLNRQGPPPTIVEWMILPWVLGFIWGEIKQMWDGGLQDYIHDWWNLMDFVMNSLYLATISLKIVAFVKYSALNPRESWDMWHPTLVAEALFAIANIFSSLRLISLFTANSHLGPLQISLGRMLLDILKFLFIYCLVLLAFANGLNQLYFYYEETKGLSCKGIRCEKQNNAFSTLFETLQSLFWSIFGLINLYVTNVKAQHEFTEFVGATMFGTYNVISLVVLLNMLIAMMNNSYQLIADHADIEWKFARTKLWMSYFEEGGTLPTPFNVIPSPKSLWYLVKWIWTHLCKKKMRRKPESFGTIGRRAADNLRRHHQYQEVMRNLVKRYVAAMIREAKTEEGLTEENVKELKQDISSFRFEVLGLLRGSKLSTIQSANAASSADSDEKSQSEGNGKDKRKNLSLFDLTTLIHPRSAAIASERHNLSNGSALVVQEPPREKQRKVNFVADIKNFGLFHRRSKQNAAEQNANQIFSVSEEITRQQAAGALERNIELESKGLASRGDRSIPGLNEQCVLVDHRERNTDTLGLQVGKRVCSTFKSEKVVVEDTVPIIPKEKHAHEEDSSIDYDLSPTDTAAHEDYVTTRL

[6] = biological target: Peroxisome proliferator-activated receptor gamma/Nuclear receptor coactivator 2 (Homo sapiens, UniProt P37231); type: functional;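 note: agonist potency for raising coactivator recruitment to the receptor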
[7] = biological target: Peroxisome proliferator-activated receptor gamma/Nuclear receptor coactivator 1 (Homo sapiens, UniProt P37231); type: functional;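 note: agonist potency as compounds enhance coactivator SRC-1 recruitment to PPARgamma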
[8] = biological target: Peroxisome proliferator-activated receptor gamma/Nuclear receptor coactivator 3 (Homo sapiens, UniProt P37231); type: functional;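 note: agonist potency for raising coactivator recruitment to the receptor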
Aminopeptidase N = biological target: T3, Aminopeptidase N (Plasmodium falciparum FcB1/Columbia, UniProt O96935); test: malaria alanyl aminopeptidase activity blockers – biochemical, fluorogenic H-Leu-NHMec substrate, 1536-well (AID 1445); set-up: species or system Plasmodium falciparum 3D7, 3D7
T3 sequence (O96935 whole entry): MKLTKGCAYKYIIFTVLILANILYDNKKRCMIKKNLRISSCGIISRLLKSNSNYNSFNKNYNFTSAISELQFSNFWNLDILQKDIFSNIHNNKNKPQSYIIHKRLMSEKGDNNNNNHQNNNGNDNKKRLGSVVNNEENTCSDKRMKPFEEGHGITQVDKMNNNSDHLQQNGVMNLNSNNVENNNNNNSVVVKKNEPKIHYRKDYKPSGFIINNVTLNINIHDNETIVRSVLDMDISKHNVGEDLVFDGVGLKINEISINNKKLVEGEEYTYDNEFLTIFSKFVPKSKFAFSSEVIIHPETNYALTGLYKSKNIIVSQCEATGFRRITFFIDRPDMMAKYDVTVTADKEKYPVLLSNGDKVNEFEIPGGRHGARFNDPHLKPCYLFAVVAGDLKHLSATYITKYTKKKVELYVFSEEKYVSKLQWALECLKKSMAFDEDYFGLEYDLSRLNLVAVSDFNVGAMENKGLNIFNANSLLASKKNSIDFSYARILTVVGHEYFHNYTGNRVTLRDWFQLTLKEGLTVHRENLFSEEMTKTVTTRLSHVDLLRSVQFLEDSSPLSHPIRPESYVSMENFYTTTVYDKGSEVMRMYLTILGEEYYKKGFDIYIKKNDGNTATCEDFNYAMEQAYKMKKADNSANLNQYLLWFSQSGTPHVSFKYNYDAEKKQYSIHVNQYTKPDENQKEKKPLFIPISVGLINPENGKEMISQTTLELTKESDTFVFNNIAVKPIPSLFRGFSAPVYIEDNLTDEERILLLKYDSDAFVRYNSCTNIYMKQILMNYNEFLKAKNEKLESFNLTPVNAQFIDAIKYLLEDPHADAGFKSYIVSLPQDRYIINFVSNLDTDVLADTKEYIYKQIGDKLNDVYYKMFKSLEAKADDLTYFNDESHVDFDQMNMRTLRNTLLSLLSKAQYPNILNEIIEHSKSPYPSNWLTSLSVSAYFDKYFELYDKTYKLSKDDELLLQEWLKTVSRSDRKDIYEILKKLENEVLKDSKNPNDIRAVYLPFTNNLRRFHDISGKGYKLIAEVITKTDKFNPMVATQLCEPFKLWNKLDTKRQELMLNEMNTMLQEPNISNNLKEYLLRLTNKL

Bcl-2-like protein 10 = biological target: T4, Bcl-2-like protein 10 (Homo sapiens, UniProt Q9HD36); test: Bcl-B/TR3 peptide binding disruption – biochemical, fluorescence polarization, FITC-TR3 peptide, selectivity assay for Bfl-1 inhibitor project, primary screen (AID 748);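 note: fluorescence polarization from a fluorescein-labelled TR3 peptide binding purified Bcl-B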
T4 sequence (Q9HD36 whole entry): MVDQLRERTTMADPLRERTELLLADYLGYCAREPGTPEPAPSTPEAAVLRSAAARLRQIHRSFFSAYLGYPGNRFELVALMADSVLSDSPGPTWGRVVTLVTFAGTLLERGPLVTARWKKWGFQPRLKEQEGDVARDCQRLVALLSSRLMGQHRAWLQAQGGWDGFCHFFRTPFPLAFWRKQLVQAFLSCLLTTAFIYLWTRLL

BJ [9] = test: BJ-TERT-LT-ST fibroblast viability loss – cell-based, RAS-independent, luminescence, dose response (AID 1935); type: functional; details: Homo sapiens;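 note: BJ fibroblasts immortalized with TERT plus LT and ST oncogenes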
[10] = DRD fibroblast viability loss – cell-based, non-viral oncogenic, luminescence, dose response (AID 1934); type: functional; details: Homo sapiens
BJ [11] = test: BJ-TERT fibroblast viability loss – cell-based, RAS-independent, luminescence, dose response (AID 1933); type: functional; details: Homo sapiens
BJ [12] = test: cells; type: functional, cell-based; details: Homo sapiens
[13] = Luminescence Cell-Based Dose Response HTS to Identify Activators of Luciferase Translation or Activity in H4 […] Cells. [Related pubchem assays: 1829 (Project Summary), 1814 (Primary HTS)]; type: functional
H4 = test: Luminescence Cell-Based Dose Response HTS to Identify Activators of 5'UTR Stem-Loop Driven Prion Protein mRNA Translation in H4 Neuroglioblastoma Cells. [Related pubchem assays: 1829 (Project Summary), 1814 (Primary HTS)]; type: functional; details: Homo sapiens
cells [14] = type: functional, cell-based
cells [15] = type: functional, cell-based; remark: listed apart in the source
INS1 = test: INS-1E survival protection against cytokine death – cell-based, luminescence, retest, dose response (AID 449756); type: functional; details: Rattus norvegicus;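 note: cell death triggered by IL-1 beta plus TNF-alpha plus IFN-gamma mixture; protective hits raise ATP signal compared with cytokine alone wells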

Sequence of Peroxisome proliferator-activated receptor gamma/Nuclear receptor coactivator 2 (P37231 whole entry): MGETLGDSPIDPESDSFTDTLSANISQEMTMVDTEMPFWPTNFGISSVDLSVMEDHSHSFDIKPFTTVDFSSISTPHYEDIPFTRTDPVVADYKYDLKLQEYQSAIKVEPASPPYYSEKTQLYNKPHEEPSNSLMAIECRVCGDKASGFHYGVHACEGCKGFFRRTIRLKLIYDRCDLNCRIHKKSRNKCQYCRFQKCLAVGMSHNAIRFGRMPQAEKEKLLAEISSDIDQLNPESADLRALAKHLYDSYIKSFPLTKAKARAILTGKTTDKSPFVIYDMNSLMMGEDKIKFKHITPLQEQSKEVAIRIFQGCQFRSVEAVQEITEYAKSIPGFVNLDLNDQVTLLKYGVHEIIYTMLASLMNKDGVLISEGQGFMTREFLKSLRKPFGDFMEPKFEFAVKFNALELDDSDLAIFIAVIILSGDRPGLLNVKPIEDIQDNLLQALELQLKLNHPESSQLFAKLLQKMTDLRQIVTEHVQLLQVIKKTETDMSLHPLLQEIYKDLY
Sequence of Peroxisome proliferator-activated receptor gamma/Nuclear receptor coactivator 2 (Q15596 whole entry, further chain): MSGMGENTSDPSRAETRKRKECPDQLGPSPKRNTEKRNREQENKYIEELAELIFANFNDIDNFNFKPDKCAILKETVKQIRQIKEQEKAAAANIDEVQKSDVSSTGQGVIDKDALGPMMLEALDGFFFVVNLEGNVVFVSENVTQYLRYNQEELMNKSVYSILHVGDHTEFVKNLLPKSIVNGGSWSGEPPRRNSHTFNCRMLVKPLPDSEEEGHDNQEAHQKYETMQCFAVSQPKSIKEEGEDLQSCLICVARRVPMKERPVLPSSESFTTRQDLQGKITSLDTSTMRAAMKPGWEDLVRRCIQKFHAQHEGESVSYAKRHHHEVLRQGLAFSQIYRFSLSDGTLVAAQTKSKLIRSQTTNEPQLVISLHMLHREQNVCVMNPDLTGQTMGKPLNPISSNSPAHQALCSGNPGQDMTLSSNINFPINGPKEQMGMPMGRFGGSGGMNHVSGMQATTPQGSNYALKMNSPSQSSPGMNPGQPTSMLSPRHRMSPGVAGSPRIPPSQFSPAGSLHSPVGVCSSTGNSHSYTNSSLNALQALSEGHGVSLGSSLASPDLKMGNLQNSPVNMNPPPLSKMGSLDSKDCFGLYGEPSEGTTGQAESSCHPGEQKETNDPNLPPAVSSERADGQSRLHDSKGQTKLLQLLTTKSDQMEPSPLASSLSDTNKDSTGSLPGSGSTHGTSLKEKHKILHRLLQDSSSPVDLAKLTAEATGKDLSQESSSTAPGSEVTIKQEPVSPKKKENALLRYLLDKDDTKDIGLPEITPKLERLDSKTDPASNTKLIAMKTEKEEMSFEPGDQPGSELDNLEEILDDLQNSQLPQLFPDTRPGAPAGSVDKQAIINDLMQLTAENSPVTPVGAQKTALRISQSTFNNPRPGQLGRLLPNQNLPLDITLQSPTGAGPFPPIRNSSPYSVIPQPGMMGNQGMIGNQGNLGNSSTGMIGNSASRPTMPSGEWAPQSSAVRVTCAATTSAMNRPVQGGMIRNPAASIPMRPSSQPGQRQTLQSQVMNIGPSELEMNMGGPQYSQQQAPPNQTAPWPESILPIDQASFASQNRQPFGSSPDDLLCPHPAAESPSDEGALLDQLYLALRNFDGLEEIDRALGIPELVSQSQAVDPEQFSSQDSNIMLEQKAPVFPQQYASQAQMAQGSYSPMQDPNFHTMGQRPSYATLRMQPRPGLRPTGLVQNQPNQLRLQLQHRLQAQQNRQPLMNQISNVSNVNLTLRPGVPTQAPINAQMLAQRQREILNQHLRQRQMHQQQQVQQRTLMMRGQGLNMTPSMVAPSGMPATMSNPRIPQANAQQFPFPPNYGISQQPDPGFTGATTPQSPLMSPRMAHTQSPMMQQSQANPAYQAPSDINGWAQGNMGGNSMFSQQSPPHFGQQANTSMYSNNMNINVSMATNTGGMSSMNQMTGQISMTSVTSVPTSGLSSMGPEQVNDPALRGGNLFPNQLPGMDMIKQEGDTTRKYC
Sequence of Peroxisome proliferator-activated receptor gamma/Nuclear receptor coactivator 3 (P37231 whole entry): as the sequence (P37231 whole entry) above
Sequence of Peroxisome proliferator-activated receptor gamma/Nuclear receptor coactivator 3 (Q9Y6Q9 whole entry, further chain): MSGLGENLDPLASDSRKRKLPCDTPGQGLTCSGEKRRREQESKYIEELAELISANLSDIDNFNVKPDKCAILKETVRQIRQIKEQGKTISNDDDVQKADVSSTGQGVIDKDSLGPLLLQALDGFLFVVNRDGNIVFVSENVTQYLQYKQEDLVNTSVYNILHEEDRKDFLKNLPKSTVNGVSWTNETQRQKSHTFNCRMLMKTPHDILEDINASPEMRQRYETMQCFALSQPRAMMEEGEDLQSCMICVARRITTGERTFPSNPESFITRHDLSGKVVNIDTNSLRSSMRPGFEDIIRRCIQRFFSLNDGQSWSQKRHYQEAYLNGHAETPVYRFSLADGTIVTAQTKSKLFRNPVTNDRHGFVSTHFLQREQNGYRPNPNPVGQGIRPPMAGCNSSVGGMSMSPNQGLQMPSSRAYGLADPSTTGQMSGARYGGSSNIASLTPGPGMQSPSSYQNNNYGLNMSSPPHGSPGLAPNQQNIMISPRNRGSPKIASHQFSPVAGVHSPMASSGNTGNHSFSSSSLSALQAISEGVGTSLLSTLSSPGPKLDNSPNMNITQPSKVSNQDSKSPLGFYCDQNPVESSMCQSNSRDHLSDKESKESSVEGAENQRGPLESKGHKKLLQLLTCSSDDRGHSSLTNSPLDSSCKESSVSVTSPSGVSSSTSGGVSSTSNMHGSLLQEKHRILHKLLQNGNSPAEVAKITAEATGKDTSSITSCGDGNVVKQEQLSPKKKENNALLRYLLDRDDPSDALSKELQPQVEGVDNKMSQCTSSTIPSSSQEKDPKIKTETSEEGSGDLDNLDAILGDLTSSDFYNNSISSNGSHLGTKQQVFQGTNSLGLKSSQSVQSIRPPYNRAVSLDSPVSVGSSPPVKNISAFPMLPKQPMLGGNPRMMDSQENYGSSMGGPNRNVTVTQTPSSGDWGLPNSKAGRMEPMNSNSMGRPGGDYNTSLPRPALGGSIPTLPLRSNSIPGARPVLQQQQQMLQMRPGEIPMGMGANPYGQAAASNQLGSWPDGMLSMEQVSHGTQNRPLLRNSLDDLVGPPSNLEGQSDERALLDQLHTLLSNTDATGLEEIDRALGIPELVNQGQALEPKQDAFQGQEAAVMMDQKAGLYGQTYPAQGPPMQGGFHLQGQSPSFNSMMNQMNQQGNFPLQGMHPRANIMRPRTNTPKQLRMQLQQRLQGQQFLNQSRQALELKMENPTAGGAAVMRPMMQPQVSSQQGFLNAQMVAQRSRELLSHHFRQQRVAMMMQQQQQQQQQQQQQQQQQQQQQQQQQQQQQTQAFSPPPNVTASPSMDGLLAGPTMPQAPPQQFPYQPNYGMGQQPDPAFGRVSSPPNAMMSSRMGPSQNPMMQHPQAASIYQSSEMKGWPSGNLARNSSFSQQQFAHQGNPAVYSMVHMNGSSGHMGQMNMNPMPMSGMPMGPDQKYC

CC(=O)Nc1cc(NC(C)=O)cc(C(=O)OCC(=O)N2CC(C)OC(C)C2)c1 (configuration not stated)
IC50 (Protein skinhead-1): > 100 µM (inactive)

FCCCOc1ccc(-c2ccnc(-c3ccccc3)n2)cc1
IC50 (Protein skinhead-1): 52.3 µM (inactive)

O=C(Nc1ccc(F)cc1)C1CCCN1S(=O)(=O)c1ccc(Br)cc1 (configuration not stated)
AC50 [1]: 7.75 µM (active) | AC50 [2]: 14.5 µM (active) | AC50 [3]: 16.3 µM (active) | AC50 [4]: 6.89 µM (active)

Cc1cc(NC(=O)c2cnn3cccnc23)nn1CC(=O)Nc1cccnc1
EC50 [5]: 4.22 µM (active)

COc1ccc(C2CC(=O)c3c([nH]c(C(=O)OC(C)C)c3C)C2)cc1OC (configuration not stated)
EC50 [6]: > 79.4 µM (not active) | EC50 [7]: > 79.4 µM (not active) | EC50 [8]: > 79.4 µM (not active)

CC1=CN2C(=N)/C(=C/c3cc(Cl)c(O)c(Cl)c3)C(=O)N=C2S1
IC50 (Aminopeptidase N): 42 µM (active)

COc1ccc(S(=O)(=O)N2CCCC2C(=O)Nc2nnc(-c3cccnc3)s2)cc1 (configuration not stated)
IC50 (Bcl-2-like protein 10): > 100 µM (inactive)

O=C(NCCCN1CCN(Cc2ccccc2)CC1)C1CCN(c2nnc(-n3cccc3)s2)CC1
IC50 (Bcl-2-like protein 10): 62.8 µM (inactive)

CC(C)(C)n1nnnc1C(c1cccs1)N(Cc1cccnc1)Cc1ccco1 (configuration not stated)
AC50 [1]: 3.99 µM (active) | AC50 [2]: 15.2 µM (active) | AC50 [3]: 7.08 µM (active) | AC50 [4]: 4.74 µM (active)

OCCC1CN(Cc2ccccc2-c2ccco2)CCN1Cc1ccccc1 (configuration not stated)
EC50 [5]: 5.31 µM (active)

COc1ccc(C(=O)c2cc([N+](=O)[O-])ccc2N2CCCC2)cc1
EC50 (BJ [9]): 3.87 µM (inconclusive) | EC50 [10]: 3.06 µM (active) | EC50 (BJ [11]): 13 µM (active) | EC50 (BJ [12]): 58.2 µM (active)

Fc1cccc(CSc2ccc(-c3ccco3)nn2)c1
IC50 (Protein skinhead-1): > 100 µM (inactive) | EC50 [13]: 49.2 µM (active) | EC50 (H4): 8.43 µM (active)

O=C(O)CCc1ccc(-c2cccs2)n1CCC(=O)O
IC50 (Bcl-2-like protein 10): 77 µM (inactive)

Cc1cccc(OCCOCCN2CCNCC2)c1C
EC50 [5]: 1.19 µM (active)

CCc1nnc(NC(=O)CSc2ncnc3c2oc2ccccc23)s1
EC50 [6]: 18.3 µM (not active) | EC50 [7]: 22.6 µM (not active) | EC50 [8]: 23.5 µM (not active)

FC(F)(F)c1cnc(Nc2ccc(N3CCOCC3)cc2)c(Cl)c1
IC50 (Bcl-2-like protein 10): 76.3 µM (inactive)

Nc1nc(C2CCCN2S(=O)(=O)c2ccc(Cl)cc2)cs1 (configuration not stated)
EC50 [6]: > 79.4 µM (not active) | EC50 [7]: > 79.4 µM (not active) | EC50 [8]: > 79.4 µM (not active)

O=C(c1ccccc1)c1cc([N+](=O)[O-])ccc1N1CCCC1
EC50 (BJ [9]): > 150 µM (not active) | EC50 [10]: > 150 µM (not active) | EC50 (BJ [11]): > 150 µM (not active) | EC50 (BJ [12]): > 150 µM (not active)

O=C(N/N=C/c1cc(Cl)ccc1O)c1ccccc1Br
EC50 (cells [14]): > 350 µM (not active) | IC50 (Aminopeptidase N): 30.8 µM (active) | EC50 (cells [15]): 14.7 µM (active) | AC50 (INS1): 2.29 µM (active)

C[C@H]1CN([C@@H](C)CO)C(=O)c2cc(NS(=O)(=O)c3ccc(F)cc3)ccc2O[C@H]1CN(C)S(=O)(=O)c1ccc(F)cc1
AC50 [4]: 42.4 µM (active)

COc1cc(/C=N/NC(=O)[C@H](Cc2c[nH]c3ccccc23)NC(=O)OCC(C)C)cc([N+](=O)[O-])c1O
IC50 (Aminopeptidase N): 12.2 µM (active)

CCOC(=O)c1s/c(=N\C(=O)c2ccc(OC(C)C)cc2)n(C)c1C
EC50 [6]: 16.2 µM (not active) | EC50 [7]: 18.3 µM (not active) | EC50 [8]: 20.3 µM (not active)
